These results are taken from patent publication US9890185B2, “Urea derivatives useful as kinase inhibitors” (Respivert Limited, priority 2013, dated 2018).

In assay [1] the test system is PBMCs. Nature of the assay: IFN gamma release in CD3/CD28 stimulated PBMC cells (assay c). In kind it is cell-based. The following applies: Homo sapiens, read-out: IC50 Values for Inhibition of Cytokine Release, PBMCs IFNγ. The method, boiled down:
(§1)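 Compound added to human PBMCs on anti-CD3/anti-CD28-coated wells (0.3 and 3 μg/mL respectively); 3-day culture. Sandwich ELISA of supernatant IL-2 or IFN gamma gives the read-out, with IC50 derived from the dose-response curve.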

Assay [2] concerns PBMCs. Description: IL-2 release in CD3/CD28 stimulated PBMC cells (assay c). In kind it is cell-based. The following applies: Homo sapiens, read-out: IC50 Values for Inhibition of Cytokine Release, PBMCs IL-2. The method, boiled down:
as §1

Assay [3] has as its system PBMCs. Nature of the assay: Cell mitosis assay in PBMCs (assay g). The following applies: Homo sapiens, PBMC, test compound 5 μg/mL. It counts as cell-based. Summed up:
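Metaphase arrest with 0.1 μg/mL demecolcine during the final 2 hr of a 20 hr compound exposure, which follows 48 hr of 2% PHA stimulation of healthy-donor human PBMCs. Mitotic lymphocytes counted by flow cytometry (anti-phospho-histone 3 plus propidium iodide). Inhibition expressed relative to 0.5% DMSO.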

The target in assay [4] is p38 MAPKα isoform (MAPK14) (Homo sapiens (Human), UniProt Q16539). Nature of the assay: p38 MAPKα enzyme inhibition (FRET, Z-LYTE, Method 2). It counts as biochemical. Summed up: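 Z-LYTE FRET: p38 MAPKα (80 ng/mL for Method 1, 200 ng/mL for Method 2, pre-dilution) preincubated 2 hr RT with compound (4–0.004 μg/mL solutions), activity read via MAPKAP-K2 phosphorylation after 1 hr RT and 1 hr protease development. Coumarin/fluorescein ratio gives phosphorylation; % inhibition versus uninhibited control, IC50 from concentration-response curve.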
Chain of p38 MAPKα isoform (MAPK14) (Q16539 whole entry, canonical isoform): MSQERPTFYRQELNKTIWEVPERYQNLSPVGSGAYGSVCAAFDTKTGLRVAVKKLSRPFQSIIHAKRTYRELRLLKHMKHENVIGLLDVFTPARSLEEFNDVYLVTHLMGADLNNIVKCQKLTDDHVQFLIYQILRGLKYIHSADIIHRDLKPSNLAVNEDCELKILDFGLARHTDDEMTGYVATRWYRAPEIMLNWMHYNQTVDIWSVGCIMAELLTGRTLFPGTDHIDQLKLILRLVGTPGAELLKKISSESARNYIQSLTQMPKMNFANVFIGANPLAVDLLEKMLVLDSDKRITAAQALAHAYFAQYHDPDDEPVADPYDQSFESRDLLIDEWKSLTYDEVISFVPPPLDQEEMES

Assay [5] has as its system PBMCs. Description: LPS-induced IL-8 release in PBMC cells (assay b). In kind it is cell-based, human. The following applies: Homo sapiens, PBMC; LPS-stimulated PBMCs; read-out: IC50 Values for Inhibition of Cytokine Release, PBMCs IL-8. The method, boiled down:
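Cytokines (TNFα, IL-8) in supernatants were quantified by sandwich ELISA after a 24 h challenge with 1 ng/mL E. coli LPS at 37° C, 5% CO2. Healthy-donor PBMCs had been exposed to compound for 2 h beforehand. IC50 values were fitted from the concentration-response curves.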

The subject of a further assay is d-U937 cells. Nature of the assay: Accumulation of β catenin in d-U937 cells (assay m). In kind it is cell-based, human. The note with it: percentage relative to Reference Compound at 1 μg/mL. The method, boiled down: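 Read-out: colourimetric cell-based immunoassay for endogenous β-catenin (OD450 minus 655 reference), normalised to crystal violet absorbance at 595 nm. Test compound or vehicle was applied for 18 hr to U937 monocytes first differentiated with PMA (100 ng/mL) for 48–72 hr.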

As a reminder, the IC50 is the point on the concentration scale where inhibition reaches its midpoint. As usually defined, the inhibition is how much of the control response was suppressed. The low end stands for a weak effect, the high end for a strong effect.

For `COc1c(NC(=O)Nc2ccc(Oc3ccnc(Nc4ccccc4)c3)c3ccccc23)cc(C(C)(C)C)cc1[S+](C)[O-]` (racemic) [Example 12, 1-(5-(tert-Butyl)-2-methoxy-3-(methylsulfinyl)phenyl)-3-(4-((2-(phenylamino)pyridin-4-yl)oxy)naphthalen-1-yl)urea], the IC50 with PBMCs [1] is 8.6 nM; with PBMCs [2], 67 nM; in assay [4], 193 nM; in the assay on PBMCs [5], 3.6 nM. In the assay on PBMCs [3], this compound had an inhibition at 5 µg/mL of 23.2%. In addition, the “% β-catenin induction” value in the assay on d-U937 cells (test compound 1 μg/mL) is −0.5%; with d-U937 cells (test compound 5 μg/mL), 5.0%; in the assay with d-U937 cells (test compound 10 μg/mL) it was 6.0%.
Turning to `COCCOCCOCCOc1cc(Nc2cc(Oc3ccc(NC(=O)Nc4cc(C(C)(C)C)cc(CS(C)(=O)=O)c4OC)c4ccccc34)ccn2)cc(OC)c1` [15(a), 1-(5-(tert-butyl)-2-methoxy-3-((methylsulfonyl)methyl)phenyl)-3-(4-((2-((3-methoxy-5-(2-(2-(2-methoxyethoxy)ethoxy)ethoxy)phenyl)amino)pyridin-4-yl)oxy)naphthalen-1-yl)urea], the IC50 was determined as 27.2 nM in the assay with PBMCs [1], 43.2 nM with PBMCs [2], 177 nM in assay [4] and 3.6 nM in the assay with PBMCs [5]. In addition, the inhibition at 5 µg/mL with PBMCs [3] came out at 56.8%. Further, the “% β-catenin induction” value in the assay with d-U937 cells (test compound 1 μg/mL) is recorded as −4.0%; in the assay on d-U937 cells (test compound 5 μg/mL) it was −5.0%; in the assay on d-U937 cells (test compound 10 μg/mL), −3.0%.
On to `COc1c(NC(=O)Nc2ccc(Oc3ccnc(Nc4cccnc4)c3)c3ccccc23)cc(C(C)(C)C)cc1P(C)(C)=O` [15(ad), 1-(5-(tert-butyl)-3-(dimethylphosphoryl)-2-methoxyphenyl)-3-(4-((2-(pyridin-3-ylamino)pyridin-4-yl)oxy)naphthalen-1-yl)urea], for which the IC50 was determined as 16.2 nM in the assay on PBMCs [1], 1110 nM in the assay on PBMCs [2], 181 nM in assay [4] and 3.7 nM in the assay on PBMCs [5]. In the assay with PBMCs [3], this compound showed an inhibition at 5 µg/mL of 31%. The “% β-catenin induction” value came to 12.0% in the assay with d-U937 cells (test compound 1 μg/mL), 36.0% with d-U937 cells (test compound 5 μg/mL) and 49.0% with d-U937 cells (test compound 10 μg/mL).
As for `COc1cc(F)cc(Nc2cc(Oc3ccc(NC(=O)Nc4cc(C(C)(C)C)cc(P(C)(C)=O)c4OC)c4ccccc34)ccn2)c1` [15(an), 1-(5-(tert-butyl)-3-(dimethylphosphoryl)-2-methoxyphenyl)-3-(4-((2-((3-fluoro-5-methoxyphenyl)amino)pyridin-4-yl)oxy)naphthalen-1-yl)urea], the IC50 came out at 6.2 nM with PBMCs [1], 251 nM in the assay with PBMCs [2], 344 nM in assay [4] and 2.7 nM with PBMCs [5]. This compound returned an inhibition at 5 µg/mL in the assay on PBMCs [3] of 50.3%. The “% β-catenin induction” value worked out at 1.5% in the assay with d-U937 cells (test compound 1 μg/mL), 11.5% in the assay on d-U937 cells (test compound 5 μg/mL) and 13.5% with d-U937 cells (test compound 10 μg/mL).
In the case of `COc1c(NC(=O)Nc2ccc(Oc3ccnc(Nc4cnn(C)n4)n3)c3ccccc23)cc(C(C)(C)C)cc1P(C)(C)=O` [15(x), 1-(5-(tert-butyl)-3-(dimethylphosphoryl)-2-methoxyphenyl)-3-(4-((2-((2-methyl-2H-1,2,3-triazol-4-yl)amino)pyrimidin-4-yl)oxy)naphthalen-1-yl)urea], the IC50 in the assay on PBMCs [1] came to 35.9 nM; with PBMCs [2], 624 nM; in assay [4], 219 nM; in the assay with PBMCs [5], 6.1 nM. Further, the inhibition at 5 µg/mL in the assay on PBMCs [3] turned out to be 18.4%. For the same compound, the “% β-catenin induction” value in the assay on d-U937 cells (test compound 1 μg/mL) worked out at 7.0%; in the assay on d-U937 cells (test compound 5 μg/mL) it was 4.0%; in the assay with d-U937 cells (test compound 10 μg/mL), 4.0%.
`COc1c(CC(N)=O)cc(C(C)(C)C)cc1NC(=O)Nc1ccc(Oc2ccnc(NCc3ccccn3)c2)c2ccccc12` [38(d), 2-(5-(tert-Butyl)-2-methoxy-3-(3-(4-((2-((pyridin-2-ylmethyl)amino)pyridin-4-yl)oxy)naphthalen-1-yl)ureido)phenyl)acetamide]: the IC50 turned out to be 106 nM in the assay on PBMCs [1], 1650 nM with PBMCs [2], 13 nM in assay [4] and 4.5 nM with PBMCs [5]. This compound gave an inhibition at 5 µg/mL with PBMCs [3] of 28.1%. The “% β-catenin induction” value is given as 2.5% in the assay on d-U937 cells (test compound 1 μg/mL), 19.5% in the assay with d-U937 cells (test compound 5 μg/mL) and 30.0% in the assay on d-U937 cells (test compound 10 μg/mL).
With `COc1c(CC(N)=O)cc(C(C)(C)C)cc1NC(=O)Nc1ccc(Oc2ccnc(Nc3cc(C)cc(C)c3)c2)c2ccccc12` [38(f), 2-(5-(tert-Butyl)-3-(3-(4-((2-((3,5-dimethylphenyl)amino)pyridin-4-yl)oxy)naphthalen-1-yl)ureido)-2-methoxyphenyl)acetamide], the IC50 with PBMCs [1] is 16.5 nM; in the assay on PBMCs [2], 75.8 nM; in assay [4] it was 226 nM; in the assay on PBMCs [5], 5.5 nM. For the same compound, 5 µg/mL produced 37.8% inhibition in the assay on PBMCs [3]. The “% β-catenin induction” value is 2.0% in the assay with d-U937 cells (test compound 1 μg/mL), 3.3% with d-U937 cells (test compound 5 μg/mL) and 8.3% in the assay with d-U937 cells (test compound 10 μg/mL).
As for `COCCOCCOCCOc1cc(Nc2nccc(Oc3ccc(NC(=O)Nc4cc(C(C)(C)C)cc(OCP(C)(C)=O)c4OC)c4ccccc34)n2)cc(OC)c1` [Example 6, 1-(5-(tert-Butyl)-3-((dimethylphosphoryl)methoxy)-2-methoxyphenyl)-3-(4-((2-((3-methoxy-5-(2-(2-(2-methoxyethoxy)ethoxy)ethoxy)phenyl)amino)pyrimidin-4-yl)oxy)naphthalen-1-yl)urea], the IC50 with PBMCs [1] turned out to be 15.5 nM; in assay [4] it was 211 nM; in the assay on PBMCs [5], 1.9 nM. Besides, the inhibition at 5 µg/mL in the assay with PBMCs [3] was found to be 52.4%. Moreover, the “% β-catenin induction” value in the assay with d-U937 cells (test compound 1 μg/mL) amounted to 1.0%; in the assay with d-U937 cells (test compound 5 μg/mL) it was 29.0%; with d-U937 cells (test compound 10 μg/mL) it was 65.0%.
Take `COc1cc(Nc2cc(Oc3ccc(NC(=O)Nc4cc(C(C)(C)C)cc([S+](C)[O-])c4OC)c4ccccc34)ccn2)ccc1C(=O)NCCN1CCOCC1` (stereo not drawn) [Example 72, 4-((4-((4-(3-(5-(tert-Butyl)-2-methoxy-3-(methylsulfinyl)phenyl)ureido)naphthalen-1-yl)oxy)pyridin-2-yl)amino)-2-methoxy-N-(2-morpholinoethyl)benzamide]: the IC50 was found to be 7.5 nM in the assay on PBMCs [1], 156 nM in the assay with PBMCs [2], 32 nM in assay [4] and 2.1 nM in the assay on PBMCs [5]. Also, 5 µg/mL produced 36.8% inhibition with PBMCs [3].
For `COc1cc(Nc2cc(Oc3ccc(NC(=O)Nc4cc(C(C)(C)C)cc(CC(N)=O)c4OC)c4ccccc34)ccn2)ccc1C(=O)NCC(CO)(CO)CO` [Example 73, 4-((4-((4-(3-(3-(2-Amino-2-oxoethyl)-5-(tert-butyl)-2-methoxyphenyl)ureido)naphthalen-1-yl)oxy)pyridin-2-yl)amino)-N-(3-hydroxy-2,2-bis(hydroxymethyl)propyl)-2-methoxybenzamide] the same measures were 6.3 nM, 60.1 nM, 31 nM, 1.5 nM and 19.8%.
For the compound `COCCOCCOCCNC(=O)c1cc(Nc2cc(Oc3ccc(NC(=O)Nc4cc(C(C)(C)C)cc(CNC(=O)CN(C)C)c4OC)c4ccccc34)ccn2)cc(OC)c1` [Example 77, 3-((4-((4-(3-(5-(tert-Butyl)-3-((2-(dimethylamino)acetamido)methyl)-2-methoxyphenyl)ureido)naphthalen-1-yl)oxy)pyridin-2-yl)amino)-5-methoxy-N-(2-(2-(2-methoxyethoxy)ethoxy)ethyl)benzamide], the IC50 in the assay on PBMCs [1] came to 2.3 nM; in the assay with PBMCs [2], 18.9 nM; in assay [4], 20 nM; in the assay with PBMCs [5], 0.9 nM. Further, the inhibition at 5 µg/mL in the assay with PBMCs [3] came to 58.7%.
